Target: T1, human PAR4 (Homo sapiens, UniProt Q96RI0)
T1 construct: expressed in transfected cells; host or cells: HEK293 PAR4 Clone 1.2A (BMS Arctic ID 383940)
T1 sequence (Q96RI0 18-385): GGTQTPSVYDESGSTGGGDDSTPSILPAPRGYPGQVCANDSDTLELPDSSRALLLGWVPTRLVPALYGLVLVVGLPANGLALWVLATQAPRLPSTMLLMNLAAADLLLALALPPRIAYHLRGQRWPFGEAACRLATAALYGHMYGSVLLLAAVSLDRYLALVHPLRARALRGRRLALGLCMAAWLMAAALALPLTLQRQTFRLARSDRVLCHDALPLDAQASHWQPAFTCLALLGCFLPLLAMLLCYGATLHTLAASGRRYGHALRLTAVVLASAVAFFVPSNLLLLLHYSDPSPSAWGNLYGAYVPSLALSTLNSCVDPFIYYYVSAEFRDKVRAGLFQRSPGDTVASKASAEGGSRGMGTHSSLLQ
Experiment: PAR4 FLIPR assay: antagonism of agonist-peptide-induced calcium mobilization in PAR4-expressing HEK293 cells
Assay type: cell-based
Conditions: H-Ala-Phe(4-F)-[…]NH2-induced intracellular calcium mobilization, 11-point curves

Structure (SMILES)	IC50
COc1cnc2c(-c3nc4cc(F)c(OC[C@@H](C)OC(=O)Nc5ccnc(OCCC(C)(C)O)c5)nc4s3)cc(C)cc2n1 [Example 699, (R)-1-((6-fluoro-2-(2-methoxy-7-methylquinoxalin-5-yl)thiazolo[5,4-b]pyridin-5-yl)oxy) propan-2-yl (2-(3-hydroxy-3-methylbutoxy)pyridin-4-yl)carbamate]	1.1 nM
COCc1ccc2nc(-c3cc(C)cc4nc(COC)cnc34)sc2c1 [Example 309, 6-(methoxymethyl)-2-(2-(methoxymethyl)-7-methylquinoxalin-5-yl)benzo[d]thiazole]	3.3 nM
CNC(=O)c1cnc2c(-c3nc4cc(F)c(O[C@@H](C)[C@@H](C)OC(=O)Nc5cnc(C)nc5)cc4s3)cc(C)cc2n1 (stereo in doubt) [Example 393, (2R,3S)-3-((5-fluoro-2-(7-methyl-2-(methylcarbamoyl)quinoxalin-5-yl)benzo[d]thiazol-6-yl)oxy)butan-2-yl (2-methylpyrimidin-5-yl)carbamate]	30 nM
COc1cnc2c(-c3nc4cc(F)c(O[C@@H](C)[C@@H](C)OC(=O)Nc5ccc(CN6CCOCC6)nc5)cc4s3)cc(C)cc2n1 [Example 521, (2R,3S)-3-((5-fluoro-2-(2-methoxy-7-methylquinoxalin-5-yl)benzo[d]thiazol-6-yl)oxy) butan-2-yl (6-(morpholinomethyl)pyridin-3-yl)carbamate]	24 nM
COCc1cnc2c(-c3nc4ccc(OC)cc4s3)cc(Cl)cc2n1 [Example 201, 2-(7-chloro-2-(methoxymethyl)quinoxalin-5-yl)-6-methoxybenzo[d]thiazole]	1.3 nM
COc1cnc2c(-c3nc4c(Cl)c(F)c(OC[C@@H](C)OC(=O)Nc5cnc(F)c(C)c5)cc4s3)cc(C)cc2n1 [Example 402, (R)-1-((4-chloro-5-fluoro-2-(2-methoxy-7-methylquinoxalin-5-yl)benzo[d]thiazol-6-yl)oxy)propan-2-yl (6-fluoro-5-methylpyridin-3-yl)carbamate]	3.7 nM
COc1cnc2c(-c3nc4c(C(O)C(C)(C)C)cc(OCCOC(=O)Nc5cncc(C#N)c5)cc4s3)cc(C)cc2n1 (centres unmarked) [Example 638, 2-((4-(1-hydroxy-2,2-dimethylpropyl)-2-(2-methoxy-7-methylquinoxalin-5-yl)benzo[d]thiazol-6-yl)oxy)ethyl (5-cyanopyridin-3-yl)carbamate]	2.7 nM
COCc1cnc2c(-c3nc4c(C)cc(OCCNC(=O)OCc5ccccc5)cc4s3)cc(C)cc2n1 [Example 92, Benzyl 2-(2-(2-(methoxymethyl)-7-methylquinoxalin-5-yl)-4-methylbenzo[d]thiazol-6-yloxy)ethylcarbamate]	2 nM
CNCCOc1ccc2oc(-c3cc(C)cc4nc(OC(F)F)cnc34)cc2c1 [Example 54, 2-(2-(2-(difluoromethoxy)-7-methylquinoxalin-5-yl)benzofuran-5-yloxy)-N-methylethanamine]	94 nM
CCOc1cnc2c(-c3nc4cc(F)c(OC[C@@H](C)OC(=O)Nc5cnc(OCCO)nc5)nc4s3)cc(C)cc2n1 [Example 814, (R)-1-((2-(2-ethoxy-7-methylquinoxalin-5-yl)-6-fluorothiazolo[5,4-b]pyridin-5-yl)oxy)propan-2-yl (2-(2-hydroxyethoxy)pyrimidin-5-yl)carbamate]	7.2 nM
COc1cnc2c(-c3nc4cc(F)c(OC[C@@H](C)OC(=O)Nc5ccc(CO)nc5)nc4s3)cc(C)cc2n1 [Example 694, (R)-1-((6-fluoro-2-(2-methoxy-7-methylquinoxalin-5-yl)thiazolo[5,4-b]pyridin-5-yl)oxy) propan-2-yl (6-(hydroxymethyl)pyridin-3-yl)carbamate]	2.1 nM
COCc1cnc2c(-c3nc4c(C)cc(OCCNS(=O)(=O)c5ccc(F)cc5)cc4s3)cc(Cl)cc2n1 [Example 200, N-(2-((2-(7-chloro-2-(methoxymethyl)quinoxalin-5-yl)-4-methylbenzo[d]thiazol-6-yl)oxy)ethyl)-4-fluorobenzenesulfonamide]	1.6 nM
COCc1cnc2c(-c3nc4c(OC)cc(F)cc4s3)cc(C)cc2n1 [Example 270, 6-fluoro-4-methoxy-2-(2-(methoxymethyl)-7-methylquinoxalin-5-yl)benzo[d]thiazole]	17 nM
COc1cnc2c(-c3nc4cc(F)c(OC[C@@H](C)OC(=O)Nc5ccc(C(=O)N6CCC[C@@H](O)C6)nc5)cc4s3)cc(C)cc2n1 [Example 485, (R)-1-((5-fluoro-2-(2-methoxy-7-methylquinoxalin-5-yl)benzo[d]thiazol-6-yl)oxy)propan-2-yl (6-((R)-3-hydroxypiperidine-1-carbonyl)pyridin-3-yl)carbamate]	1.6 nM
COc1cnc2c(-c3nc4cc(F)c(O[C@@H](C)[C@@H](C)OC(=O)Nc5cnc(C(=O)NCC(C)(C)O)nc5)cc4s3)cc(C)cc2n1 [Example 457, (2R,3S)-3-((5-fluoro-2-(2-methoxy-7-methylquinoxalin-5-yl)benzo[d]thiazol-6-yl)oxy)butan-2-yl (2-((2-hydroxy-2-methylpropyl)carbamoyl)pyrimidin-5-yl)carbamate]	0.4 nM

The remaining compounds from weak to strong by IC50, led by results:

IC50	Structure (SMILES)
270 nM	COCc1cnc2c(-c3nc4c(C(=O)O)cc(OC)cc4s3)cc(C)cc2n1 [Example 162, 6-methoxy-2-(2-(methoxymethyl)-7-methylquinoxalin-5-yl)benzo[d]thiazole-4-carboxylic acid]
160 nM	COc1cnc2c(-c3nc4c(Cl)c(F)c(OC)cc4s3)c(C)c(C)cc2n1 [Example 216, 4-chloro-5-fluoro-6-methoxy-2-(2-methoxy-6,7-dimethylquinoxalin-5-yl)benzo[d] thiazole]
11 nM	COc1cnc2c(-c3nc4cc(F)c(O[C@@H](C)[C@@H](C)OC(=O)Nc5cnc(C)nc5)cc4s3)cc(CO)cc2c1 [Example 773]
5.5 nM	COc1cnc2c(-c3nc4c(Cl)c(F)c(OCCOC(=O)Nc5ccnc(C)c5)cc4s3)cc(C)cc2n1 [Example 336, 2((4-chloro-5-fluoro-2-(2-methoxy-7-methylquinoxalin-5-yl)benzo[d]thiazol-6-yl)oxy)ethyl (2-methylpyridin-4-yl)carbamate]
5.2 nM	CCOc1cnc2c(-c3nc4cc(F)c(O[C@@H](C)[C@@H](C)OC(=O)Nc5cnc([C@H](C)O)nc5)cc4s3)cc(C)cc2n1 [Example 535, (2R,3S)-3-((2-(2-ethoxy-7-methylquinoxalin-5-yl)-5-fluorobenzo[d]thiazol-6-yl)oxy)butan-2-yl (2-((S)-1-hydroxyethyl)pyrimidin-5-yl)carbamate]
4.1 nM	COc1cnc2c(-c3nc4cc(F)c(O[C@@H](C)[C@@H](C)OC(=O)Nc5cnc(OC[C@H](C)O)nc5)cc4s3)cc(C)cc2n1 [Example 581, (2R,3S)-3-((5-fluoro-2-(2-methoxy-7-methylquinoxalin-5-yl)benzo[d]thiazol-6-yl)oxy)butan-2-yl (2-((S)-2-hydroxypropoxy)pyrimidin-5-yl)carbamate]
3.8 nM	COc1cc(CO)c2nc(-c3cc(C)cc4nc(OC)cnc34)sc2c1 [Example 154, (6-methoxy-2-(2-methoxy-7-methylquinoxalin-5-yl)benzo[d]thiazol-4-yl)methanol]
3.7 nM	COc1cnc2c(-c3nc4cc(F)c(OC[C@H](C)OC(=O)Nc5cccnc5)cc4s3)cc(C)cc2n1 [Example 346, (S)-1-((5-fluoro-2-(2-methoxy-7-methylquinoxalin-5-yl)benzo[d]thiazol-6-yl)oxy)propan-2-ylpyridin-3-ylcarbamate]
2.7 nM	COc1cnc2c(-c3nc4cc(F)c(OC[C@@H](C)OC(=O)Nc5ccc(C#N)nc5)cc4s3)cc(C)cc2n1 [Example 351, (R)-1-((5-fluoro-2-(2-methoxy-7-methylquinoxalin-5-yl)benzo[d]thiazol-6-yl)oxy) propan-2-yl (6-cyanopyridin-3-yl)carbamate]
2.4 nM	COc1cnc2c(-c3nc4cc(F)c(O[C@@H](C)[C@@H](C)OC(=O)Nc5ccc(N6CCOC6=O)nc5)cc4s3)cc(C)cc2n1 [Example 600, (2R,3S)-3-((5-fluoro-2-(2-methoxy-7-methylquinoxalin-5-yl)benzo[d]thiazol-6-yl)oxy)butan-2-yl (6-(2-oxooxazolidin-3-yl)pyridin-3-yl)carbamate]
1.2 nM	COc1cnc2c(-c3nc4cc(F)c(O[C@@H](C)[C@@H](C)OC(=O)Nc5cnc(OCCO)nc5)nc4s3)cc(Cl)cc2c1 [Example 774, (2R,3S)-3-((2-(6-chloro-3-methoxyquinolin-8-yl)-6-fluorothiazolo[5,4-b]pyridin-5-yl)oxy) butan-2-yl (2-(2-hydroxyethoxy)pyrimidin-5-yl)carbamate]
0.4 nM	COc1cnc2c(-c3nc4cc(F)c(OC[C@@H](C)OC(=O)Nc5ccc(C)nc5)nc4s3)cc(C)cc2n1 [Example 681, (R)-1-((6-fluoro-2-(2-methoxy-7-methylquinoxalin-5-yl)thiazolo[5,4-b]pyridin-5-yl)oxy) propan-2-yl (6-methylpyridin-3-yl)carbamate]
0.4 nM	COc1cnc2c(-c3nc4cc(F)c(O[C@@H](C)[C@@H](C)OC(=O)Nc5ccnc(OC[C@@H](C)O)c5)cc4s3)cc(C)cc2n1 [Example 550, (2R,3S)-3-((5-fluoro-2-(2-methoxy-7-methylquinoxalin-5-yl)benzo[d]thiazol-6-yl)oxy)butan-2-yl (2-((R)-2-hydroxypropoxy)pyridin-4-yl)carbamate]
0.3 nM	COCc1cnc2c(-c3nc4c(s3)CCCC4)cc(C)cc2n1 [Example 144, 2-(2-(methoxymethyl)-7-methylquinoxalin-5-yl)-4,5,6,7-tetrahydrobenzo[d]thiazole]

Reference: patent publication US12060347B2 (BRISTOL-MYERS SQUIBB COMPANY, priority 2016, dated 2024)
